# Measurements from publication PMC10030390, “A phase 1 open-label study to assess the relative bioavailability of TAK-931 tablets in reference to powder-in-capsule in patients with advanced solid tumors” (Investigational New Drugs, 2022).
# Values joined by “and” are separate entries in the source; they are usually repeats but may differ in a detail not shown here. Identical values can stand only once. Like-named read-outs stand apart in the source and are kept apart here.
# Assays:
# [1] = test system: locally advanced or metastatic solid tumors; assay: Antitumor activity, investigator-assessed disease response (RECIST v1.1); format: in vivo, human
# Method: The primary endpoints were the ratio of geometric means of the following PK parameters for TAK-931 tablets in reference to PIC and associated 2-sided 90% confidence intervals (CIs): maximum observed plasma concentration (Cmax), area under the plasma concentration–time curve (AUC) from time 0 to time of the last quantifiable concentration (AUClast), and the AUC from time 0 to infinity (AUCinf). Secondary endpoints were PK parameters of TAK-931 80 mg following a single-dose administration as PIC or tablet (time of first occurrence of maximum observed plasma concentration [Tmax], and terminal disposition phase half-life [T1/2z]), antitumor activity, and safety.
# solid tumors = test system: solid tumors; design: method as in earlier work; conditions: of 24 response-evaluable patients, first-in-human phase 1 study; cited from earlier work
# [2] = design: method as in NCT02699749; conditions: estimated from preliminary data, ref NCT02699749; cited from earlier work
compound,measurement,setting,value
Cc1[nH]ncc1-c1cc2nc([C@@H]3CC4CCN3CC4)[nH]c(=O)c2s1 [TAK-931],partial or complete responses,[1]; 19 patients evaluable for response,No partial or complete responses
same,Median time to PD or death,[1]; 95% CI: 1.6–2.8,1.9 months
same,individual progression-free survival durations of patients with SD,"[1]; four patients with best response SD, + = censored observation",3.58 months and ≥ 2.23 months and 3.55 months and 4.01 months
same,On-study deaths,"PIC/Tablet sequence, n = 12",0 n (%)
same,On-study deaths,"Tablet/PIC sequence, n = 8",1 (13) n (%)
same,Dose modification: Dose increased,"human, in vivo",0 n (%)
same,Serious TEAEs: Not related,"human, in vivo",2 (25) n (%) and 2 (17) n (%) and 4 (20) n (%)
same,"TEAE Alopecia, Any-grade","human, in vivo",6 (30) n (%)
same,"TEAE Constipation, Any-grade","human, in vivo",8 (40) n (%)
same,"TEAE Decreased appetite, Any-grade","human, in vivo",4 (20) n (%)
same,"TEAE Disturbance in attention, Any-grade","human, in vivo",2 (10) n (%)
same,"TEAE Dyspnea, Any-grade","human, in vivo",3 (15) n (%)
same,"TEAE Dyspnea, Grade ≥ 3","human, in vivo",1 (5) n (%)
same,"TEAE Fatigue, Any-grade","human, in vivo",13 (65) n (%)
same,"TEAE Fatigue, Grade ≥ 3","human, in vivo",1 (5) n (%)
same,"TEAE Headache, Any-grade","human, in vivo",3 (15) n (%)
same,"TEAE Hypertension, Any-grade","human, in vivo",3 (15) n (%)
same,"TEAE Hypertension, Grade ≥ 3","human, in vivo",1 (5) n (%)
same,"TEAE Hypokalemia, Any-grade","human, in vivo",1 (5) n (%)
same,"TEAE Hypokalemia, Grade ≥ 3","human, in vivo",1 (5) n (%)
same,"TEAE Ileus, Any-grade","human, in vivo",2 (10) n (%)
same,"TEAE Ileus, Grade ≥ 3","human, in vivo",2 (10) n (%)
same,"TEAE Nausea, Any-grade","human, in vivo",8 (40) n (%)
same,"TEAE Neutropenia, Any-grade","human, in vivo",2 (10) n (%)
same,"TEAE Neutropenia, Grade ≥ 3","human, in vivo",2 (10) n (%)
same,"TEAE Pneumonia, Any-grade","human, in vivo",1 (5) n (%)
same,"TEAE Pneumonia, Grade ≥ 3","human, in vivo",1 (5) n (%)
same,"TEAE Rectal cancer, Any-grade","human, in vivo",1 (5) n (%)
same,"TEAE Rectal cancer, Grade ≥ 3","human, in vivo",1 (5) n (%)
same,"TEAE Vomiting, Any-grade","human, in vivo",6 (30) n (%)
same,"TEAE Weight decrease, Any-grade","human, in vivo",3 (15) n (%)
same,patients with TEAE alopecia,"human, in vivo",30%
same,patients with TEAE constipation,"human, in vivo",40%
same,patients with TEAE fatigue,"human, in vivo",65%
same,patients with TEAE nausea,"human, in vivo",40%
same,patients with TEAE vomiting,"human, in vivo",30%
same,patients with grade ≥ 3 TEAE ileus,"human, in vivo",10%
same,patients with grade ≥ 3 TEAE neutropenia,"human, in vivo",10%
same,patients with treatment-related TEAE alopecia,"human, in vivo",30%
same,patients with treatment-related TEAE decreased appetite,"human, in vivo",20%
same,patients with treatment-related TEAE fatigue,"human, in vivo",50%
same,patients with treatment-related TEAE nausea,"human, in vivo",30%
same,patients with treatment-related TEAE vomiting,"human, in vivo",20%
same,patients with a partial response,solid tumors,3
same,patients with prolonged SD,solid tumors,4
same,within-patient coefficient of variation for AUC,[2],35.0%
same,within-patient coefficient of variation for Cmax,[2],36.9%
